Assay results from the NIST ThermoML archive (doi:10.1016/j.jct.2016.09.031).
± gives the expanded uncertainty stated by the source. Values belong to the molecule of their own block, whether it stands above or below them.

Experiments:
[1] = molar heat capacity at constant pressure; mn = molality of the nth substance listed, in mol/kg; conditions: 298.15 K, 100 kPa, Liquid, Flow calorimetry
[2] = molar heat capacity at constant pressure; conditions: 298.15 K; 101.33 kPa; Liquid; Flow calorimetry

Compound: [Cl-].[Rb+] [rubidium chloride] + O
- molar heat capacity at constant pressure ([1]; m1 = 0.4938): 73.89 ± 1.5 J/K/mol
- molar heat capacity at constant pressure ([1]; m1 = 0.8703): 73.2 ± 1.5 J/K/mol
- molar heat capacity at constant pressure ([1]; m1 = 1.515): 71.66 ± 1.4 J/K/mol
- molar heat capacity at constant pressure ([1]; m1 = 2.41): 69.91 ± 1.4 J/K/mol
- molar heat capacity at constant pressure ([1]; m1 = 3.388): 68.46 ± 1.4 J/K/mol
- molar heat capacity at constant pressure ([1]; m1 = 4.213): 67.56 ± 1.4 J/K/mol
- molar heat capacity at constant pressure ([1]; m1 = 4.888): 67.01 ± 1.3 J/K/mol
- molar heat capacity at constant pressure ([1]; m1 = 5.84): 66.18 ± 1.3 J/K/mol

Compound: [Cl-].[Na+] [sodium chloride] + O
- molar heat capacity at constant pressure ([1]; m1 = 2.05): 72.32 ± 1.5 J/K/mol

Compound: O [water] + [Cl-].[Cs+]
- molar heat capacity at constant pressure ([1]; m2 = 0): 75.11 ± 1.5 J/K/mol

Compound: O [water] + [Cl-].[Rb+]
- molar heat capacity at constant pressure ([1]; m2 = 0): 75.11 ± 1.5 J/K/mol

Now from value to molecule:

- molar heat capacity at constant pressure ([1]; m1 = 0.2644): 74.19 ± 1.5 J/K/mol
- molar heat capacity at constant pressure ([1]; m1 = 0.5336): 73.52 ± 1.5 J/K/mol
- molar heat capacity at constant pressure ([1]; m1 = 1.066): 72.48 ± 1.5 J/K/mol
- molar heat capacity at constant pressure ([1]; m1 = 2.018): 70.13 ± 1.4 J/K/mol
- molar heat capacity at constant pressure ([1]; m1 = 3.02): 68.3 ± 1.4 J/K/mol
- molar heat capacity at constant pressure ([1]; m1 = 3.877): 67.71 ± 1.4 J/K/mol
- molar heat capacity at constant pressure ([1]; m1 = 5.674): 66.01 ± 1.3 J/K/mol
- molar heat capacity at constant pressure ([1]; m1 = 6.822): 65.63 ± 1.3 J/K/mol
Compound: [Cl-].[Cs+] [cesium chloride] + O

- molar heat capacity at constant pressure [2]: 75.11 ± 1.5 J/K/mol
Compound: O [water]
